Measured values as given in PubChem BioAssay (NCI).
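Where inhibition never reached the appropriate level, the endpoint shown equals the highest concentration tested. Otherwise, values were interpolated linearly from a five-concentration, 48-hour dose response in 96-well plates. GI50 = concentration required for 50% inhibition of growth. TGI is the concentration that stops growth completely.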

Assays:
Test in all cases: DTP human tumour cell line panel, 48 h
[1] = tested on: A498 renal
[2] = tested on: A549 NSCLC
[3] = tested on: ACHN renal
[4] = tested on: CAKI-1 renal
[5] = tested on: CCRF-CEM leukemia
[6] = tested on: COLO 205 colon
[7] = tested on: DLD-1 colon
[8] = tested on: DMS 114 small cell lung
[9] = tested on: DMS 273 small cell lung
[10] = tested on: EKVX NSCLC
[11] = tested on: HCC-2998 colon
[12] = tested on: HCT-116 colon
[13] = tested on: HCT-15 colon
[14] = tested on: HL-60(TB) leukemia
[15] = tested on: HOP-62 NSCLC
[16] = tested on: HOP-92 NSCLC
[17] = tested on: HT29 colon
[18] = tested on: IGROV1 ovarian
[19] = tested on: K-562 leukemia
[20] = tested on: KM12 colon
[21] = tested on: KM20L2 colon
[22] = tested on: LXFL 529 NSCLC
[23] = tested on: M14 melanoma
[24] = tested on: M19-MEL melanoma
[25] = tested on: MALME-3M melanoma
[26] = tested on: MOLT-4 leukemia
[27] = tested on: NCI-H23 lung
[28] = tested on: NCI-H460 lung
[29] = tested on: NCI-H522 lung
[30] = tested on: OVCAR-3 ovarian
[31] = tested on: OVCAR-4 ovarian
[32] = tested on: OVCAR-5 ovarian
[33] = tested on: OVCAR-8 ovarian
[34] = tested on: RPMI-8226 leukemia
[35] = tested on: RXF 393 renal
[36] = tested on: SF-268 CNS
[37] = tested on: SF-295 CNS
[38] = tested on: SF-539 CNS
[39] = tested on: SK-MEL-2 melanoma
[40] = tested on: SK-MEL-28 melanoma
[41] = tested on: SK-MEL-5 melanoma
[42] = tested on: SK-OV-3 ovarian
[43] = tested on: SN12C renal
[44] = tested on: SNB-19 CNS
[45] = tested on: SNB-75 CNS
[46] = tested on: SNB-78 CNS
[47] = tested on: SR leukemia
[48] = tested on: SW-620 colon
[49] = tested on: TK-10 renal
[50] = tested on: U251 CNS
[51] = tested on: UACC-257 melanoma
[52] = tested on: UACC-62 melanoma
[53] = tested on: UO-31 renal
[54] = tested on: XF 498 CNS
[55] = tested on: 786-0 renal
[56] = tested on: HOP-18 NSCLC
[57] = tested on: LOX IMVI melanoma
[58] = tested on: NCI-H226 lung

In the case of `CON(C)C(=O)C(Cc1ccccc1)NC(=O)OCc1ccccc1` (centres undefined), the TGI [1] is reported as > 100 µM, the TGI [2] is reported as > 100 µM and the TGI [3] is reported as > 100 µM. For the same molecule, the TGI [4] was > 100 µM, the TGI [5] was > 100 µM and the TGI [6] was > 100 µM. The TGI [7] was > 100 µM, the TGI [8] was > 100 µM and the TGI [9] was > 100 µM. For the same molecule, the TGI [10] was > 100 µM, the TGI [11] was > 100 µM and the TGI [12] was > 100 µM. For the same molecule, the TGI [13] was > 100 µM, the TGI [14] was > 100 µM and the TGI [15] was > 100 µM. The TGI [16] was > 100 µM, the TGI [17] was > 100 µM and the TGI [18] was > 100 µM. The TGI [19] was > 100 µM, the TGI [20] was > 100 µM and the TGI [21] was > 100 µM. For the same molecule, the TGI [22] was > 100 µM, the TGI [23] was > 100 µM and the TGI [24] was > 100 µM. For the same molecule, the TGI [25] was > 100 µM, the TGI [26] was > 100 µM and the TGI [27] was > 100 µM. For the same molecule, the TGI [28] was > 100 µM, the TGI [29] was > 100 µM and the TGI [30] was > 100 µM. For the same molecule, the TGI [31] was > 100 µM, the TGI [32] was > 100 µM and the TGI [33] was > 100 µM. For the same molecule, the TGI [34] was > 100 µM, the TGI [35] was > 100 µM and the TGI [36] was > 100 µM. The TGI [37] was > 100 µM, the TGI [38] was > 100 µM and the TGI [39] was > 100 µM. For the same molecule, the TGI [40] was > 100 µM, the TGI [41] was > 100 µM and the TGI [42] was > 100 µM. For the same molecule, the TGI [43] was > 100 µM, the TGI [44] was > 100 µM and the TGI [45] was > 100 µM. For the same molecule, the TGI [46] was > 100 µM, the TGI [47] was > 100 µM and the TGI [48] was > 100 µM. For the same molecule, the TGI [49] was > 100 µM, the TGI [50] was > 100 µM and the TGI [51] was > 100 µM. For the same molecule, the TGI [52] was > 100 µM, the TGI [53] was > 100 µM and the TGI [54] was > 100 µM.

For `O=C1C(C(Nc2ccccc2)c2ccccc2)=C([O-])c2ccccc21.O=C1C(C(Nc2ccccc2)c2ccccc2)=C([O-])c2ccccc21.[Cu+2]` (centres undefined), the GI50 [55] was 48.3 µM, the TGI [55] was > 100 µM and the GI50 [1] was 30.6 µM. For the same molecule, the TGI [1] was > 100 µM, the GI50 [2] was 27.2 µM and the TGI [2] was > 100 µM. The GI50 [3] was 86.2 µM, the TGI [3] was > 100 µM and the GI50 [4] was > 100 µM. The TGI [4] was > 100 µM, the GI50 [6] was 32.1 µM and the TGI [6] was > 100 µM. For the same molecule, the GI50 [7] was 34.6 µM, the TGI [7] was > 100 µM and the GI50 [9] was 26.3 µM. The TGI [9] was > 100 µM, the GI50 [12] was 12 µM and the TGI [12] was > 100 µM. The GI50 [13] was 52.4 µM, the TGI [13] was > 100 µM and the GI50 [14] was 19.6 µM. The TGI [14] was > 100 µM, the GI50 [56] was > 100 µM and the TGI [56] was > 100 µM. For the same molecule, the GI50 [15] was > 100 µM, the TGI [15] was > 100 µM and the GI50 [16] was 40.9 µM. The TGI [16] was > 100 µM, the GI50 [17] was 33.1 µM and the TGI [17] was > 100 µM. For the same molecule, the GI50 [18] was 54.5 µM, the TGI [18] was > 100 µM and the GI50 [19] was 28.6 µM. For the same molecule, the TGI [19] was > 100 µM, the GI50 [20] was 32.2 µM and the TGI [20] was > 100 µM. For the same molecule, the GI50 [21] was 52.5 µM, the TGI [21] was > 100 µM and the GI50 [57] was 46.6 µM. The TGI [57] was > 100 µM, the GI50 [23] was 18.5 µM and the TGI [23] was > 100 µM. For the same molecule, the GI50 [24] was > 100 µM, the TGI [24] was > 100 µM and the GI50 [25] was 65.8 µM. For the same molecule, the TGI [25] was > 100 µM, the GI50 [26] was 25.5 µM and the TGI [26] was > 100 µM. For the same molecule, the GI50 [27] was 24.9 µM, the TGI [27] was > 100 µM and the GI50 [28] was 40 µM. For the same molecule, the TGI [28] was > 100 µM, the GI50 [29] was 23.7 µM and the TGI [29] was 73.6 µM. The GI50 [33] was 41.9 µM, the TGI [33] was > 100 µM and the GI50 [34] was 24.8 µM. For the same molecule, the TGI [34] was > 100 µM, the GI50 [37] was 48.2 µM and the TGI [37] was > 100 µM. For the same molecule, the GI50 [38] was 30.6 µM, the TGI [38] was > 100 µM and the GI50 [40] was > 100 µM. The TGI [40] was > 100 µM, the GI50 [41] was 7.54 µM and the TGI [41] was > 100 µM. The GI50 [42] was 8.38 µM, the TGI [42] was 63 µM and the GI50 [43] was 41.5 µM. The TGI [43] was > 100 µM, the GI50 [44] was > 100 µM and the TGI [44] was > 100 µM. For the same molecule, the GI50 [45] was 17.2 µM, the TGI [45] was 92.1 µM and the GI50 [46] was 84.6 µM. The TGI [46] was > 100 µM, the GI50 [47] was 42.2 µM and the TGI [47] was > 100 µM. The GI50 [48] was 42.6 µM, the TGI [48] was > 100 µM and the GI50 [49] was > 100 µM. For the same molecule, the TGI [49] was > 100 µM, the GI50 [50] was 22.5 µM and the TGI [50] was 65.4 µM. The GI50 [51] was > 100 µM, the TGI [51] was > 100 µM and the GI50 [52] was 50.6 µM. The TGI [52] was > 100 µM, the GI50 [53] was 32.2 µM and the TGI [53] was > 100 µM.

With `CN(C)C=Nc1nc(=O)n(C2CCC(CO)O2)cc1F` (centres undefined) the TGI [55] was > 100 µM, the TGI [2] was > 100 µM and the TGI [3] was > 100 µM. The TGI [4] was > 100 µM, the TGI [5] was > 100 µM and the TGI [6] was > 100 µM. The TGI [7] was > 100 µM, the TGI [9] was > 100 µM and the TGI [10] was > 100 µM. The TGI [11] was > 100 µM, the TGI [13] was > 100 µM and the TGI [14] was > 100 µM. The TGI [56] was > 100 µM, the TGI [15] was > 100 µM and the TGI [16] was > 100 µM. For the same molecule, the TGI [17] was > 100 µM, the TGI [19] was > 100 µM and the TGI [20] was > 100 µM. The TGI [21] was > 100 µM, the TGI [57] was > 100 µM and the TGI [22] was > 100 µM. The TGI [23] was > 100 µM, the TGI [25] was > 100 µM and the TGI [26] was > 100 µM. The TGI [58] was > 100 µM, the TGI [27] was > 100 µM and the TGI [28] was > 100 µM. For the same molecule, the TGI [29] was > 100 µM, the TGI [30] was > 100 µM and the TGI [31] was > 100 µM. The TGI [32] was > 100 µM, the TGI [33] was > 100 µM and the TGI [34] was > 100 µM. For the same molecule, the TGI [35] was > 100 µM, the TGI [36] was > 100 µM and the TGI [37] was > 100 µM. For the same molecule, the TGI [39] was > 100 µM, the TGI [40] was > 100 µM and the TGI [41] was > 100 µM. The TGI [42] was > 100 µM, the TGI [43] was > 100 µM and the TGI [44] was > 100 µM. For the same molecule, the TGI [45] was > 100 µM, the TGI [46] was > 100 µM and the TGI [48] was > 100 µM. The TGI [49] was > 100 µM, the TGI [50] was > 100 µM and the TGI [51] was > 100 µM. For the same molecule, the TGI [53] was > 100 µM and the TGI [54] was > 100 µM.
